Here are results for 35 compounds from patent publication US10202360B2 (CELGENE QUANTICEL RESEARCH, INC., priority 2016, dated 2019).

This experiment deals with CREBBP (Homo sapiens (Human), UniProt Q92793). Nature of the experiment: In vitro enzyme inhibition assay - CREBBP inhibition (AlphaScreen, biotinylated H4-tetraacetyl peptide). Type of experiment: binding. Conditions: Table 28; AlphaScreen, H4-tetraacetyl peptide. Summed up:
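Displacement of 20 nM biotinylated tetraacetyl-H4 peptide from 50 nM E. coli-expressed His-CREBBP, measured by AlphaScreen after bead equilibration for 2 h.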
For orientation: Bead proximity is the source of the signal in Alpha formats.

SMILES strings stand for the structures. pIC50: −log10 of the molar value.

Sequence of CREBBP (Q92793 1081-1197): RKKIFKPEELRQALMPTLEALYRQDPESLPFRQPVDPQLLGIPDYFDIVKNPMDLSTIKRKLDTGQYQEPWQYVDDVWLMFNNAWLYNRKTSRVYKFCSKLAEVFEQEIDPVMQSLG

With `Cc1cccc(Cl)c1Oc1nc(NC2CCCC2)cc(-c2ccc(=O)n(C)c2)n1` [Example 284, 5-(2-(2-chloro-6-methylphenoxy)-6-(cyclopentylamino)pyrimidin-4-yl)-1-methylpyridin-2(1H)-one], the pIC50 (usually −log10 of the IC50, conventionally taken in molar units) was above 6.30. The result for `Cc1cccc(F)c1Oc1nc(NC2CCCC2)cc(-c2ccc(=O)n(C)c2)n1` [Example 285, 5-(6-(cyclopentylamino)-2-(2-fluoro-6-methylphenoxy)pyrimidin-4-yl)-1-methylpyridin-2(1H)-one] reads above 6.30.

`Cc1cccc(F)c1Oc1nc(NCC2CCCc3ccccc32)cc(-c2ccc(=O)n(C)c2)n1` (centres unmarked) [Example 286, 5-(2-(2-fluoro-6-methylphenoxy)-6-(((1,2,3,4-tetrahydronaphthalen-1-yl)methyl)amino)pyrimidin-4-yl)-1-methylpyridin-2(1H)-one] showed a pIC50 above 6.30. In turn, `Cc1cccc(F)c1Oc1nc(N[C@H]2CCc3ccccc32)cc(-c2ccc(=O)n(C)c2)n1` [Example 287, (S)-5-(6-((2,3-dihydro-1H-inden-1-yl)amino)-2-(2-fluoro-6-methylphenoxy)pyrimidin-4-yl)-1-methylpyridin-2(1H)-one] showed a pIC50 above 6.30. The result for `Cc1cccc(C(C)Nc2cc(-c3ccc(=O)n(C)c3)nc(Oc3c(C)cccc3F)n2)n1` (centres unmarked) [Example 288, 5-(2-(2-fluoro-6-methylphenoxy)-6-((1-(6-methylpyridin-2-yl)ethyl)amino)pyrimidin-4-yl)-1-methylpyridin-2(1H)-one] reads above 6.30; that for `Cc1cccc(CNc2cc(-c3ccc(=O)n(C)c3)nc(Oc3c(C)cccc3F)n2)n1` [Example 289, 5-(2-(2-fluoro-6-methylphenoxy)-6-(((6-methylpyridin-2-yl)methyl)amino)pyrimidin-4-yl)-1-methylpyridin-2(1H)-one], above 6.30; that for `Cc1ccc(CNc2cc(-c3ccc(=O)n(C)c3)nc(Oc3c(C)cccc3F)n2)cn1` [Example 290, 5-(2-(2-fluoro-6-methylphenoxy)-6-(((6-methylpyridin-3-yl)methyl)amino)pyrimidin-4-yl)-1-methylpyridin-2(1H)-one], above 6.30. The value for `CCNc1cc(-c2ccc(=O)n(C)c2)nc(Oc2c(C)cccc2F)n1` [Example 291, 5-[6-Ethylamino-2-(2-fluoro-6-methyl-phenoxy)-pyrimidin-4-yl]-1-methyl-1H-pyridin-2-one] was above 6.30; that for `Cc1cccc(F)c1Oc1nc(NCc2ccccc2)cc(-c2ccc(=O)n(C)c2)n1` [Example 292, 5-[6-Benzylamino-2-(2-fluoro-6-methyl-phenoxy)-pyrimidin-4-yl]-1-methyl-1H-pyridin-2-one] was above 6.30. The result for `Cc1cccc(F)c1Oc1nc(-c2ccc(=O)n(C)c2)cc(N(C)Cc2ccccc2)n1` [Example 293, 5-[6-(Benzyl-methyl-amino)-2-(2-fluoro-6-methyl-phenoxy)-pyrimidin-4-yl]-1-methyl-1H-pyridin-2-one] reads above 6.30. Compound `Cc1cccc(F)c1Oc1nc(N)cc(-c2cc(C)c(=O)n(C)c2)n1` [Example 294, 5-[6-Amino-2-(2-fluoro-6-methyl-phenoxy)-pyrimidin-4-yl]-1,3-dimethyl-1H-pyridin-2-one] showed a negative-log IC50 (pIC50) above 6.30.

With `CCNc1cc(-c2cc(C)c(=O)n(C)c2)nc(Oc2c(C)cccc2F)n1` [Example 295, 5-[6-Ethylamino-2-(2-fluoro-6-methyl-phenoxy)-pyrimidin-4-yl]-1,3-dimethyl-1H-pyridin-2-one], the pIC50 is above 6.30. The value for `Cc1cccc(F)c1Oc1nc(NCc2ccccc2)cc(-c2cc(C)c(=O)n(C)c2)n1` [Example 296, 5-[6-Benzylamino-2-(2-fluoro-6-methyl-phenoxy)-pyrimidin-4-yl]-1,3-dimethyl-1H-pyridin-2-one] was above 6.30; that for `Cc1cccc(F)c1Oc1nc(-c2cc(C)c(=O)n(C)c2)cc(N(C)Cc2ccccc2)n1` [Example 297, 5-[6-(Benzyl-methyl-amino)-2-(2-fluoro-6-methyl-phenoxy)-pyrimidin-4-yl]-1,3-dimethyl-1H-pyridin-2-one] was above 6.30; that for `Cc1cccc(F)c1Oc1nc(NC(C)c2ccccc2)cc(-c2ccc(=O)n(C)c2)n1` (centres unmarked) [Example 298, 5-[2-(2-Fluoro-6-methyl-phenoxy)-6-(1-phenyl-ethylamino)-pyrimidin-4-yl]-1-methyl-1H-pyridin-2-one] was above 6.30. The result for `Cc1ccccc1C(C)Nc1cc(-c2ccc(=O)n(C)c2)nc(Oc2c(C)cccc2F)n1` (centres unmarked) [Example 299, 5-[2-(2-Fluoro-6-methyl-phenoxy)-6-(1-o-tolyl-ethylamino)-pyrimidin-4-yl]-1-methyl-1H-pyridin-2-one] reads above 6.30; that for `Cc1cccc(C)c1CNc1cc(-c2ccc(=O)n(C)c2)nc(Oc2c(C)cccc2F)n1` [Example 300, 5-[6-(2,6-Dimethyl-benzylamino)-2-(2-fluoro-6-methyl-phenoxy)-pyrimidin-4-yl]-1-methyl-1H-pyridin-2-one], above 6.30.

`Cc1ccc(C)c(CNc2cc(-c3ccc(=O)n(C)c3)nc(Oc3c(C)cccc3F)n2)c1` [Example 301, 5-[6-(2,5-Dimethyl-benzylamino)-2-(2-fluoro-6-methyl-phenoxy)-pyrimidin-4-yl]-1-methyl-1H-pyridin-2-one] gave a pIC50 above 6.30. The value for `Cc1cccc(F)c1Oc1nc(NCc2ccccn2)cc(-c2ccc(=O)n(C)c2)n1` [Example 302, 5-{2-(2-Fluoro-6-methyl-phenoxy)-6-[(pyridin-2-ylmethyl)-amino]-pyrimidin-4-yl}-1-methyl-1H-pyridin-2-one] was above 6.30; that for `Cc1cccc(F)c1Oc1nc(NCc2cccnc2)cc(-c2ccc(=O)n(C)c2)n1` [Example 303, 5-{2-(2-Fluoro-6-methyl-phenoxy)-6-[(pyridin-3-ylmethyl)-amino]-pyrimidin-4-yl}-1-methyl-1H-pyridin-2-one] was above 6.30. The result for `CCCCNc1cc(-c2ccc(=O)n(C)c2)nc(Oc2c(C)cccc2F)n1` [Example 304, 5-[6-Butylamino-2-(2-fluoro-6-methyl-phenoxy)-pyrimidin-4-yl]-1-methyl-1H-pyridin-2-one] reads above 6.30. The result for `CCC[C@@H](C)Nc1cc(-c2ccc(=O)n(C)c2)nc(Oc2c(C)cccc2F)n1` [Example 305] reads above 6.30. In turn, `Cc1cccc(F)c1Oc1nc(N[C@H](C)c2ccccc2)cc(-c2ccc(=O)n(C)c2)n1` [Example 306, (R)-5-[2-(2-Fluoro-6-methyl-phenoxy)-6-(1-phenyl-ethylamino)-pyrimidin-4-yl]-1-methyl-1H-pyridin-2-one] showed a pIC50 above 6.30.

For the compound `Cc1cccc(F)c1Oc1nc(N[C@@H]2CCCc3ccccc32)cc(-c2ccc(=O)n(C)c2)n1` [Example 307, (R)-5-[2-(2-Fluoro-6-methyl-phenoxy)-6-(1,2,3,4-tetrahydro-naphthalen-1-ylamino)-pyrimidin-4-yl]-1-methyl-1H-pyridin-2-one], the pIC50 was above 6.30. The value for `CCC[C@H](C)Nc1cc(-c2ccc(=O)n(C)c2)nc(Oc2c(C)cccc2F)n1` [Example 308] was above 6.30; that for `Cc1cccc(F)c1Oc1nc(NCCC(C)C)cc(-c2ccc(=O)n(C)c2)n1` [Example 309, 5-[2-(2-Fluoro-6-methyl-phenoxy)-6-(3-methyl-butylamino)-pyrimidin-4-yl]-1-methyl-1H-pyridin-2-one] was above 6.30.

In the case of `Cc1cccc(F)c1Oc1nc(N[C@@H](C)c2ccccc2)cc(-c2ccc(=O)n(C)c2)n1` [Example 310, (S)-5-[2-(2-Fluoro-6-methyl-phenoxy)-6-(1-phenyl-ethylamino)-pyrimidin-4-yl]-1-methyl-1H-pyridin-2-one], the pIC50 was above 6.30. The value for `Cc1cccc(F)c1Oc1nc(N[C@H]2CCCc3ccccc32)cc(-c2ccc(=O)n(C)c2)n1` [Example 311, (S)-5-[2-(2-Fluoro-6-methyl-phenoxy)-6-(1,2,3,4-tetrahydro-naphthalen-1-ylamino)-pyrimidin-4-yl]-1-methyl-1H-pyridin-2-one] was above 6.30; that for `CCCCNc1cc(-c2ccc(=O)n(C)c2)nc(Oc2c(C)cccc2Cl)n1` [Example 312, 5-[6-Butylamino-2-(2-chloro-6-methyl-phenoxy)-pyrimidin-4-yl]-1-methyl-1H-pyridin-2-one] was above 6.30. The value for `CCC[C@@H](C)Nc1cc(-c2ccc(=O)n(C)c2)nc(Oc2c(C)cccc2Cl)n1` [Example 313, (R)-5-[2-(2-Chloro-6-methyl-phenoxy)-6-(1-methyl-butylamino)-pyrimidin-4-yl]-1-methyl-1H-pyridin-2-one] was above 6.30; that for `CCC[C@H](C)Nc1cc(-c2ccc(=O)n(C)c2)nc(Oc2c(C)cccc2Cl)n1` [Example 314, (S)-5-[2-(2-Chloro-6-methyl-phenoxy)-6-(1-methyl-butylamino)-pyrimidin-4-yl]-1-methyl-1H-pyridin-2-one] was above 6.30. The value for `Cc1cccc(Cl)c1Oc1nc(NCCC(C)C)cc(-c2ccc(=O)n(C)c2)n1` [Example 315, 5-[2-(2-Chloro-6-methyl-phenoxy)-6-(3-methyl-butylamino)-pyrimidin-4-yl]-1-methyl-1H-pyridin-2-one] was above 6.30.

Regarding `CCCCNc1cc(-c2ccc(=O)n(C)c2)nc(Oc2c(C)cccc2C#N)n1` [Example 316, 2-[4-Butylamino-6-(1-methyl-6-oxo-1,6-dihydro-pyridin-3-yl)-pyrimidin-2-yloxy]-3-methyl-benzonitrile], the pIC50 is above 6.30. In turn, `CCC[C@@H](C)Nc1cc(-c2ccc(=O)n(C)c2)nc(Oc2c(C)cccc2C#N)n1` [Example 317, (R)-3-Methyl-2-[4-(1-methyl-butylamino)-6-(1-methyl-6-oxo-1,6-dihydro-pyridin-3-yl)-pyrimidin-2-yloxy]-benzonitrile] showed a pIC50 above 6.30. In the case of `Cc1cccc(C#N)c1Oc1nc(N[C@H](C)c2ccccc2)cc(-c2ccc(=O)n(C)c2)n1` [Example 318, (R)-3-Methyl-2-[4-(1-methyl-6-oxo-1,6-dihydro-pyridin-3-yl)-6-(1-phenyl-ethylamino)-pyrimidin-2-yloxy]-benzonitrile], the negative-log IC50 (pIC50) is above 6.30.
